Measurements reported in patent publication US20090264342A1, “COMPOSITIONS AND METHODS FOR ANTIBIOTIC POTENTIATION AND DRUG DISCOVERY” (priority 2006, published 2009).
In brackets after ≈: the same amount, converted by molar mass.

Experiments:
Assay type in all cases: cell-based
E. coli MG1655 [1] = assay: Survival assay (CFU) of E. coli MG1655 recA+ / recA− after exposure to Nor; details: wild type background, 3 hours of exposure to Nor 0.1 μg/mL
Method: The ability of these fours strains to survive exposure to Nor was then tested. The experiment was performed as follows. Cultures were grown to early log phase in LB at 37° C. with shaking. At the 0 time point Nor was added to the cultures to a final concentration of 0.1 μg/mL. This concentration of Nor is just below the MIC for strain MG1655 under these growth conditions. Samples of the cells were collected and washed in PBS at 0, 30, 90 and 180 min time points. The number of viable cells was determined by plating the cells from each time point on LB agar and counting colonies. The CFU counts were normalized based on the time 0 time point inoculum for each culture (i.e., the CFU count obtained from the 0 time point inoculum was taken to represent 100% survival) and the log % survival was plotted (FIG. 3).
The recA deletion caused a 10,000 fold increase in quinolone sensitivity in a wild type background after 3 hours of exposure to Nor. […] In addition, inhibiting the expression and/or activity of E. coli RecA (or its homolog in other bacteria) is expected to render bacterial strains that have acquired resistance to quinolones (e.g., due to mutation in one or more subunits of the bacterial gyrase or topoisomerase IV and/or due to increased copy number of a gene encoding one of these polypeptides) sensitive once again to these compounds.

[2] = system: S. aureus strains wt, recAmut, grlA542, grlA542recAmut; assay: MIC for S. aureus wt, recAmut, grlA542 and grlA542recAmut strains; details: Staphylococcus aureus
[3] = system: S. aureus RN4220 and RN4220 recA−; assay: Survival assay in the RN4220 background after exposure to Nor; details: RN4220 recA− vs RN4220, 3 hours of exposure to Nor 0.5 μg/mL
Method: The survival ability of RN4220 and RN4220 recA^− following exposure to Nor was then tested as described in Example 2 for E. coli strains. The recA null mutant and parental strains (RN4220 recA^− and RN4220, respectively) were grown to early log phase in LB at 37° C. with shaking. At the 0 time point Nor was added to the cultures to a final concentration of 0.5 μg/mL, which is just below the MIC for wild type cells (RN4220). Samples of the cells were collected and washed in PBS at 0, 30, 90 and 180 minutes time points. The number of viable cells was determined by plating the cells on LB from each time point and counting colonies. The CFU counts were normalized based on the time 0 time point inoculum for each culture (i.e., the CFU count obtained from the 0 time point inoculum was taken to represent 100% survival) and the log % survival was plotted (FIG. 5).
It was concluded that recA is essential for survival in the presence of quinolones (FIG. 5). As in E. coli, recA deletion causes 10,000× increase in quinolone sensitivity compared to the parental strain after 3 hours of exposure to Nor.

E. coli MG1655 [4] = assay: Hydroxyl radical formation (HPF dye, flow cytometry) in E. coli; details: E. coli; 250 ng/mL norfloxacin, 5 μg/mL ampicillin, 5 μg/mL kanamycin; bacteriostatic drugs; 3 hours after addition
Method: (§1) Growth Conditions. In the experiments, the growth and survival of untreated exponential phase E. coli, or S. aureus, were compared to cultured treated with antibiotics at the above concentrations. E. coli cultures were treated with norfloxacin, kanamycin, ampicillin, rifamycin SV, chloramphenical, tetracycline, erythromycin, or spectinomycin, where appropriate, S. aureus cultures were treated with norfloxacin, vancomycin or chloramphenical, where appropriate.
(§2) Hydroxyl radical and DNA damage sensor experiments using the flow cytometer. To monitor the occurrence of DNA damage, the engineered DNA damage sensor was used, which responds to auto-cleavage of LexA by activating expression of gfpmut3b. All the drug treatments and the no-drug controls were collected with both the kanamycin- and ampicillin-resistant version of the plasmid, with the exception of the ampicillin treatment (kanamycin plasmid only) and the kanamycin treatment (ampicillin plasmid only). All data were collected using a Becton Dickinson FACSCalibur flow cytometer (Becton Dickinson, San Jose, Calif.) with a 488-nm argon laser and a 515- to 545-nm emission filter (FL1) at low flow rate. The following PMT voltage settings were used: E00 (FSC), 360 (SSC) and 700 (FL1). To detect hydroxyl radical formation, the fluorescent reporter dye, 3′-(p-hydroxyphenyl) fluorescein (HPF, Invitrogen, Carlsbad, Calif.) was used at a concentration of 5 μM (1:1000) dilution), which is oxidized by hydroxyl radicals with high specificity. The following PMT voltage settings were used: E00 (FSC), 360 (SSC) and 825 (FL 1). Calibrite beads (Becton Dickinson) were used for instrument calibration.
Flow data were processed and analyzed with MATLAB (MathWorks, Natick, Mass.) to construct figures. At least 50,000 cells were collected for each sample. In all experiments, cells were grown as described above. Samples were taken immediately before addition of drug (time zero), then every hour for 3 hours. At each timepoint, approximately […] were collected, washed once and resuspended in filtered 1×PBS, pH 7.2 (Fisher Scientific), and fluorescence was measured on the flow cytometer.
In the present study, the Applicants chose to investigate whether hydroxyl radical formation also contributes to antibiotic-induced cell death in bacteria. Using the dye hydroxyphenyl fluorescein, HPF, which is oxidized by hydroxyl radicals with high specificity, hydroxyl radical formation was first observed over a range of hydrogen peroxide concentrations known to induce hydroxyl radicals through the reduction of hydrogen peroxide by ferrous iron. In this manner, it was possible to establish the scale of hydroxyl radical formation detectable using this dye via flow cytometry.

[5] = system: wild-type strain of S. aureus; assay: Hydroxyl radical formation (HPF dye, flow cytometry) in S. aureus; details: norfloxacin, chloramphenical
Method: For work with S. aureus, a Staphylococcus aureus subspecies aureus Rosenback strain was used that was obtained from ATCC (29740).
as §1, §2

**Q.** CCn1cc(C(=O)O)c(=O)c2cc(F)c(N3CCNCC3)cc21 [Nor, norfloxacin] was tested. Which “increase in quinolone sensitivity caused by recA deletion” value (E. coli MG1655 [1]) did it give?
**A.** Its value is 10,000 fold.

**Q.** And the MIC ([2]; strain grlA542 (quinolone resistant))?
**A.** The MIC was 12.5 µg/mL (≈ 39.1 µM).

**Q.** What about the MIC ([2]; strain grlA542recAmut) of the same compound?
**A.** Its MIC is 1.56 µg/mL (≈ 4.89 µM).

**Q.** What about the MIC ([2]; strain recAmut) of the same compound?
**A.** The MIC was 0.19 µg/mL (≈ 0.595 µM).

**Q.** And the MIC ([2]; strain wt)?
**A.** The MIC was 0.78 µg/mL (≈ 2.44 µM).

**Q.** What about the “increase in quinolone sensitivity caused by recA deletion compared to parental strain” value [3] of the same compound?
**A.** The value was 10,000 ×.

**Q.** What about the hydroxyl radical formation (E. coli MG1655 [4]) of the same compound?
**A.** The hydroxyl radical formation was “induce hydroxyl radical formation”.

**Q.** What about the hydroxyl radical formation [5] of the same compound?
**A.** The hydroxyl radical formation was “increase in hydroxyl radical production”.
